From patent EP0304063B1, “Quinoline type mevalonolactones” (NISSAN CHEMICAL INDUSTRIES LTD., priority 1987, dated 1989) come the findings set out here.

Test system in the first series: not listed separately
The experiment in a line: Test D: Acute toxicity. The conditions noted are these: mouse, in vivo, po; orally administered 1000 mg/kg, 0.5% CMC suspension, ICR male mice, after seven days. As to the method: A 0.5% CMC suspension of a test compound was orally administered to ICR male mice (group of three mice). The acute toxicity was determined based on the mortality after seven days. With compound I-57, I-58, I-59, I-511, I-512, I-513, I-514, I-515, I-517 and I-523 of the present invention, the mortality was 0% even when they were orally administered in an amount of 1000 mg/kg.
A word on the mortality: it is the percentage killed. Compound `CC(C)c1nc2ccccc2c(-c2ccccc2F)c1/C=C/C(O)CC(O)CC(=O)O` (stereo not drawn) [Compound I-57] displayed a mortality at 168 h of 0%.

`Cc1ccc2c(-c3ccccc3)c(/C=C/C(O)CC(O)CC(=O)O)c(C(C)C)nc2c1` (stereo not drawn) [Compound I-58]: the mortality at 168 h amounted to 0%.

As for `CC(C)c1nc2ccccc2c(-c2ccc(Cl)cc2)c1/C=C/C(O)CC(O)CC(=O)O` (stereo not drawn) [Compound I-59], the mortality at 168 h stood at 0%.

For `Cc1ccc(-c2c(/C=C/C(O)CC(O)CC(=O)O)c(C(C)C)nc3ccccc23)cc1` (stereo not drawn) [Compound I-511], the mortality at 168 h turned out to be 0%.

On to `CC(C)c1nc2ccc(Cl)cc2c(-c2ccccc2Cl)c1/C=C/C(O)CC(O)CC(=O)O` (stereo not drawn) [Compound I-512], for which the mortality at 168 h came to 0%.

With `CC(C)c1nc2ccccc2c(-c2ccc(C(F)(F)F)cc2)c1/C=C/C(O)CC(O)CC(=O)O` (stereo not drawn) [Compound I-513], the mortality at 168 h was 0%.

On to `Cc1cc(-c2c(/C=C/C(O)CC(O)CC(=O)O)c(C(C)C)nc3ccccc23)ccc1F` (stereo not drawn) [Compound I-514], for which the mortality at 168 h is 0%.

In the case of `Cc1cc(C)cc(-c2c(/C=C/C(O)CC(O)CC(=O)O)c(C(C)C)nc3ccccc23)c1` (stereo not drawn) [Compound I-515], the mortality at 168 h came to 0%.

`CCc1nc2ccccc2c(-c2ccc(F)cc2)c1/C=C/C(O)CC(O)CC(=O)O` (stereo not drawn) [Compound I-517] showed a mortality at 168 h of 0%.

In the case of `O=C(O)CC(O)CC(O)/C=C/c1c(-c2ccccc2)nc2ccc(Cl)cc2c1-c1ccccc1` (stereo not drawn) [Compound I-523], the mortality at 168 h amounted to 0%.

The next series relates to cholesterol biosynthesis in vivo. The experiment in a line: Test C: Inhibition of cholesterol biosynthesis in vivo. The arrangement: species or system Male Sprague-Dawley rats. The conditions noted are these: oral administration of 0.05 mg/kg, relative to the control group, rats.
As to `O=C(O)CC(O)CC(O)/C=C/c1c(C2CC2)nc2ccccc2c1-c1ccc(F)cc1` (stereo not drawn) [Compound I-520], the “percent decrease of counts” value is listed as 55%.

The same series, now with this note: oral administration of 10 mg/kg, relative to the control group, rats.
As to `CC[C@H](C)C(=O)O[C@H]1C[C@H](O)C=C2C=C[C@H](C)[C@H](CC[C@@H](O)C[C@@H](O)CC(=O)O)[C@H]21` [CS-514, reference compound], the “percent decrease of counts” value is 55%.
